Data: the supplement of paper PMC10733146

Tests used:
Assay in all cases: viability relative to DMSO control (fraction); higher = less drug effect (more viable cells)
Details in all cases: 48 h
[1] = tested on: primary ALL patient cells (S088)
Outline: (§1)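 Using 384-well plates with compounds already plated at five concentrations, one well per concentration, 4 × 10^4 primary mononuclear tumour cells were added per well. Cells were Ficoll-isolated from blood or bone marrow or came from processed lymph node, fresh or cryopreserved. They were kept for 48 h at 37 °C and 5% CO2 in RPMI-1640 supplemented with penicillin/streptomycin, L-glutamine and human serum, and viability was read as CellTiter-Glo luminescence relative to the median of 16 inner DMSO wells.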

[2] = tested on: primary AML patient cells (S002)
Outline: as §1

[3] = tested on: primary AML patient cells (S011)
Outline: as §1

[4] = tested on: primary AML patient cells (S017)
Outline: as §1

[5] = tested on: primary AML patient cells (S019)
Outline: as §1

[6] = tested on: primary AML patient cells (S021)
Outline: as §1

[7] = tested on: primary AML patient cells (S025)
Outline: as §1

[8] = tested on: primary AML patient cells (S060)
Outline: as §1

[9] = tested on: primary AML patient cells (S071)
Outline: as §1

[10] = tested on: primary AML patient cells (S081)
Outline: as §1

[11] = tested on: primary AML patient cells (S085)
Outline: as §1

[12] = tested on: primary B-PLL patient cells (S016)
Outline: as §1

[13] = tested on: primary BL patient cells (S005)
Outline: as §1

[14] = tested on: primary CLL patient cells (S043)
Outline: as §1

[15] = tested on: primary DLBCL patient cells (S049)
Outline: as §1

[16] = tested on: primary DLBCL patient cells (S076)
Outline: as §1

[17] = tested on: primary T-NHL patient cells (S058)
Outline: as §1

Compound: CO[C@H]1C[C@@H]2CC[C@@H](C)[C@@](O)(O2)C(=O)C(=O)N2CCCC[C@H]2C(=O)O[C@H]([C@H](C)C[C@@H]2CC[C@@H](OC(=O)C(C)(CO)CO)[C@H](OC)C2)CC(=O)[C@H](C)/C=C(\C)[C@@H](O)[C@@H](OC)C(=O)[C@H](C)C[C@H](C)/C=C/C=C/C=C/1C [Temsirolimus]
- viability ([1]; 0.032 µM): 0.737
- viability ([1]; 0.16 µM): 0.688
- viability ([1]; 0.8 µM): 0.693
- viability ([1]; 4 µM): 0.703
- viability ([1]; 20 µM): 0.576
- viability ([2]; 0.032 µM): 0.755
- viability ([2]; 0.16 µM): 0.706
- viability ([2]; 0.8 µM): 0.702
- viability ([2]; 4 µM): 0.62
- viability ([2]; 20 µM): 0.44
- viability ([3]; 0.032 µM): 0.88
- viability ([3]; 0.16 µM): 0.805
- viability ([3]; 0.8 µM): 0.892
- viability ([3]; 4 µM): 0.84
- viability ([3]; 20 µM): 0.498
- viability ([4]; 0.032 µM): 0.724
- viability ([4]; 0.16 µM): 0.765
- viability ([4]; 0.8 µM): 0.739
- viability ([4]; 4 µM): 0.727
- viability ([4]; 20 µM): 0.634
- viability ([5]; 0.032 µM): 0.909
- viability ([5]; 0.16 µM): 0.834
- viability ([5]; 0.8 µM): 0.915
- viability ([5]; 4 µM): 0.873
- viability ([5]; 20 µM): 0.739
- viability ([6]; 0.032 µM): 0.761
- viability ([6]; 0.16 µM): 0.846
- viability ([6]; 0.8 µM): 0.818
- viability ([6]; 4 µM): 0.737
- viability ([6]; 20 µM): 0.605
- viability ([7]; 0.032 µM): 0.914
- viability ([7]; 0.16 µM): 0.962
- viability ([7]; 0.8 µM): 0.883
- viability ([7]; 4 µM): 0.893
- viability ([7]; 20 µM): 0.754
- viability ([8]; 0.032 µM): 1.05
- viability ([8]; 0.16 µM): 1.04
- viability ([8]; 0.8 µM): 1.04
- viability ([8]; 4 µM): 1.06
- viability ([8]; 20 µM): 1
- viability ([9]; 0.032 µM): 0.837
- viability ([9]; 0.16 µM): 0.761
- viability ([9]; 0.8 µM): 0.723
- viability ([9]; 4 µM): 0.646
- viability ([9]; 20 µM): 0.407
- viability ([10]; 0.032 µM): 0.885
- viability ([10]; 0.16 µM): 0.884
- viability ([10]; 0.8 µM): 0.926
- viability ([10]; 4 µM): 0.969
- viability ([10]; 20 µM): 0.869
- viability ([11]; 0.032 µM): 0.852
- viability ([11]; 0.16 µM): 0.752
- viability ([11]; 0.8 µM): 0.918
- viability ([11]; 4 µM): 0.79
- viability ([11]; 20 µM): 0.58
- viability ([12]; 0.032 µM): 0.618
- viability ([12]; 0.16 µM): 0.598
- viability ([12]; 0.8 µM): 0.653
- viability ([12]; 4 µM): 0.614
- viability ([12]; 20 µM): 0.561
- viability ([13]; 0.032 µM): 0.775
- viability ([13]; 0.16 µM): 0.707
- viability ([13]; 0.8 µM): 0.784
- viability ([13]; 4 µM): 0.775
- viability ([13]; 20 µM): 0.653
- viability ([14]; 0.032 µM): 0.749
- viability ([14]; 0.16 µM): 0.745
- viability ([14]; 0.8 µM): 0.738
- viability ([14]; 4 µM): 0.733
- viability ([14]; 20 µM): 0.692
- viability ([15]; 0.032 µM): 1.02
- viability ([15]; 0.16 µM): 0.986
- viability ([15]; 0.8 µM): 0.987
- viability ([15]; 4 µM): 0.966
- viability ([15]; 20 µM): 0.794
- viability ([16]; 0.032 µM): 0.821
- viability ([16]; 0.16 µM): 0.753
- viability ([16]; 0.8 µM): 0.805
- viability ([16]; 4 µM): 0.765
- viability ([16]; 20 µM): 0.616
- viability ([17]; 0.032 µM): 0.902
- viability ([17]; 0.16 µM): 0.809
- viability ([17]; 0.8 µM): 0.904
- viability ([17]; 4 µM): 0.873
- viability ([17]; 20 µM): 0.697

Compound: CC(=O)Nc1cccc(-n2c(=O)n(C3CC3)c(=O)c3c(Nc4ccc(I)cc4F)n(C)c(=O)c(C)c32)c1 [Trametinib]
- viability ([1]; 0.0008 µM): 0.62
- viability ([1]; 0.004 µM): 0.548
- viability ([1]; 0.02 µM): 0.545
- viability ([1]; 0.1 µM): 0.503
- viability ([1]; 0.5 µM): 0.504
- viability ([2]; 0.0008 µM): 0.398
- viability ([2]; 0.004 µM): 0.432
- viability ([2]; 0.02 µM): 0.364
- viability ([2]; 0.1 µM): 0.437
- viability ([2]; 0.5 µM): 0.402
- viability ([3]; 0.0008 µM): 0.855
- viability ([3]; 0.004 µM): 0.925
- viability ([3]; 0.02 µM): 0.953
- viability ([3]; 0.1 µM): 0.931
- viability ([3]; 0.5 µM): 0.879
- viability ([4]; 0.0008 µM): 1.02
- viability ([4]; 0.004 µM): 1.1
- viability ([4]; 0.02 µM): 0.888
- viability ([4]; 0.1 µM): 0.852
- viability ([4]; 0.5 µM): 0.719
- viability ([5]; 0.0008 µM): 0.948
- viability ([5]; 0.004 µM): 0.944
- viability ([5]; 0.02 µM): 0.878
- viability ([5]; 0.1 µM): 0.919
- viability ([5]; 0.5 µM): 0.912
- viability ([6]; 0.0008 µM): 0.864
- viability ([6]; 0.004 µM): 0.697
- viability ([6]; 0.02 µM): 0.672
- viability ([6]; 0.1 µM): 0.598
- viability ([6]; 0.5 µM): 0.605
- viability ([7]; 0.0008 µM): 0.74
- viability ([7]; 0.004 µM): 0.618
- viability ([7]; 0.02 µM): 0.644
- viability ([7]; 0.1 µM): 0.561
- viability ([7]; 0.5 µM): 0.554
- viability ([8]; 0.0008 µM): 1.04
- viability ([8]; 0.004 µM): 0.797
- viability ([8]; 0.02 µM): 0.681
- viability ([8]; 0.1 µM): 0.657
- viability ([8]; 0.5 µM): 0.642
- viability ([9]; 0.0008 µM): 0.8
- viability ([9]; 0.004 µM): 0.789
- viability ([9]; 0.02 µM): 0.757
- viability ([9]; 0.1 µM): 0.744
- viability ([9]; 0.5 µM): 0.708
- viability ([10]; 0.0008 µM): 0.999
- viability ([10]; 0.004 µM): 0.935
- viability ([10]; 0.02 µM): 0.742
- viability ([10]; 0.1 µM): 0.651
- viability ([10]; 0.5 µM): 0.567
- viability ([11]; 0.0008 µM): 0.667
- viability ([11]; 0.004 µM): 0.618
- viability ([11]; 0.02 µM): 0.484
- viability ([11]; 0.1 µM): 0.456
- viability ([11]; 0.5 µM): 0.415
- viability ([12]; 0.0008 µM): 0.939
- viability ([12]; 0.004 µM): 1.05
- viability ([12]; 0.02 µM): 0.986
- viability ([12]; 0.1 µM): 0.933
- viability ([12]; 0.5 µM): 0.885
- viability ([13]; 0.0008 µM): 0.943
- viability ([13]; 0.004 µM): 0.964
- viability ([13]; 0.02 µM): 1.01
- viability ([13]; 0.1 µM): 0.984
- viability ([13]; 0.5 µM): 0.912
- viability ([14]; 0.0008 µM): 0.825
- viability ([14]; 0.004 µM): 0.769
- viability ([14]; 0.02 µM): 0.777
- viability ([14]; 0.1 µM): 0.748
- viability ([14]; 0.5 µM): 0.744
- viability ([15]; 0.0008 µM): 0.769
- viability ([15]; 0.004 µM): 0.834
- viability ([15]; 0.02 µM): 0.705
- viability ([15]; 0.1 µM): 0.729
- viability ([15]; 0.5 µM): 0.658
- viability ([16]; 0.0008 µM): 0.752
- viability ([16]; 0.004 µM): 0.789
- viability ([16]; 0.02 µM): 0.63
- viability ([16]; 0.1 µM): 0.706
- viability ([16]; 0.5 µM): 0.648
- viability ([17]; 0.0008 µM): 0.918
- viability ([17]; 0.004 µM): 0.98
- viability ([17]; 0.02 µM): 0.969
- viability ([17]; 0.1 µM): 0.967
- viability ([17]; 0.5 µM): 0.934
